Reference: patent US12239643B2, “Therapeutic agent for inflammatory diseases, autoimmune diseases, fibrotic diseases, and cancer diseases” (MEIJI SEIKA PHARMA CO., LTD., priority 2018, dated 2025)
Read-outs that look alike come from different tables or passages of the source.

Assays:
TNFα [1] = assay: Cytokine suppression using whole human blood: TNFα (lipopolysaccharide stimulus); format: cell-based; details: read-out: TNFα Inhibitory Activity, Human Whole Blood (Test Example 3)
Description: The test compound dissolved in dimethyl sulfoxide was added to a 96-well plate, and RPMI-1640 medium and human peripheral blood containing sodium heparin were added, followed by culture at 37° C. under 5% CO2 for 1 hour. A medium containing only dimethyl sulfoxide instead of the test compound was added to the control well. To each well, lipopolysaccharide (final concentration 10 ng/mL) as a TNFα production stimulant, or phytohaemagglutinin (final concentration 20 μg/mL) as an IL-17A production stimulant, or CytoStim reagent ( 1/100 concentration) and CD28 antibody (final concentration 2.5 ng/mL) as an IL-4 production stimulant and an IL-5 production stimulant were added, followed by culture at 37° C. under 5% CO2. The culture was carried out for about 18 hours for the evaluation of the amount of TNFα, and for about 48 hours for the evaluation of the amounts of IL-17A, IL-4, and IL-5.
After collecting the culture supernatant after culturing, the amount of each cytokine was measured by the sandwich ELISA method. The cytokine production suppression rate (inhibition rate) by the test compound was calculated by the following formula from the cytokine production amount when the test compound was added, with the cytokine production amount for the control well as 100%. Inhibition Rate={1−(Cytokine Amount at Addition of Each Test Compound)/(Cytokine Amount for Control Well)}×100
In addition, the cytokine inhibitory activity (concentration for the inhibition rate of 50%) of the test compound was calculated from the inhibition curves based on the inhibition rates for various concentrations of the test compound.
The measurement results obtained by measuring the TNFα inhibitory activity and IL-5 inhibitory activity (50% inhibitory concentration) of the test compounds by the above method were evaluated in accordance with the following evaluated basis; A: less than 100 nM, B: 100 nM or more and less than 500 nM, and C: 500 nM or more. In addition, the measurement results obtained by measuring the IL-17A inhibitory activity and IL-4 inhibitory activity (50% inhibitory concentration) of the test compounds were evaluated in accordance with the following evaluated basis; A: less than 500 nM, B: 500 nM or more and less than 5000 nM, and C: 5000 nM or more.

TNFα [2] = assay: Cytokine suppression using human peripheral blood mononuclear cells: TNFα; format: cell-based; details: read-out: TNFα Inhibitory Activity, Human PBMC (Test Example 4)
Description: First, peripheral blood mononuclear cells (PBMC) were separated from whole blood by specific gravity centrifugation. Then, the isolated peripheral blood mononuclear cells were added to RPMI-1640 medium (containing 10% fetal bovine serum, penicillin, streptomycin, L-glutamine, and 2-mercaptoethanol), and cultured in a 96-well plate at 37° C. under 5% CO2 for 0 to 1 hour. The test compound dissolved in dimethyl sulfoxide was added to each well, followed by further culture at 37° C. under 5% CO2 for 1 hour. A medium containing only dimethyl sulfoxide instead of the test compound was added to the control well. To each well, lipopolysaccharide (final concentration 1 ng/mL) as a TNFα production stimulant and an IL-23 production stimulant, or concanavalin A (final concentration 20 μg/mL) as an IL-17A production stimulant was added, followed by culture at 37° C. under 5% CO2. In addition, as IL-4 production stimulus, IL-5 production stimulus, and IL-13 production stimulus, PBMC was seeded on a 96-well plate previously coated with a CD3 antibody (final concentration 3 μg/mL), and a CD28 antibody (final concentration 5 ng/mL) was added. The culture was carried out for about 18 hours for the evaluation of the amounts of TNFα and IL-23, and about 48 hours for the evaluation of the amounts of IL-17A, IL-4, IL-5, and IL-13. After collecting the culture supernatant after culturing, the amount of each cytokine was measured by the sandwich ELISA method in the same manner as in Test Example 3, and the cytokine production suppression rate (inhibition rate) and the cytokine inhibitory activity (concentration for the inhibition rate of 50%) of each test compound were calculated.
The measurement results obtained by measuring the TNFα inhibitory activity and IL-5 inhibitory activity (50% inhibitory concentration) of the test compounds by the above method were evaluated in accordance with the following evaluated basis; A: less than 10 nM, B: 10 nM or more and less than 100 nM, and C: 100 nM or more. In addition, the measurement results obtained by measuring the IL-17A inhibitory activity, IL-23 inhibitory activity, IL-4 inhibitory activity, and IL-13 inhibitory activity (50% inhibitory concentration) of the test compounds were evaluated in accordance with the following evaluated basis; A: less than 500 nM, B: 500 nM or more and less than 5000 nM, and C: 5000 nM or more.

PDE4 = assay: Evaluation of PDE4 inhibitory activity, scintillation proximity assay; format: biochemical; details: for PDE4 inhibitory activity: summary in words of Tables 57 to 69
Outline: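 SPA with [2,8-3H]-cAMP and diluted PDE4 enzyme preparation in 50 mM Tris-HCl pH 7.4, 8.3 mM MgCl2, 1.7 mM EGTA, 3 mg/mL BSA, 120 min at room temperature. Product captured on ZnSO4-containing YSi-SPA beads, scintillation counted; IC50 from inhibition curves vs DMSO control and no-enzyme blank.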

[3] = finer grading of compounds rated A in Evaluation 1, read-out: PDE4 Inhibitory Activity (Evaluation 2)
[4] = Homo sapiens, human whole blood
[5] = human PBMC, lipopolysaccharide 1 ng/mL
[6] = scintillation proximity assay, read-out: PDE4 Inhibitory Activity (Evaluation 1; concentration for the inhibition rate of 50%)

## CCOc1cc([C@@H](CS(C)(=O)=O)N2C(=O)c3cccc(NC(C)=O)c3C2=O)ccc1OC [apremilast, reference compound]
TNFα [1]; Homo sapiens
  IC50: > 500 nM
TNFα [2]; Homo sapiens, PBMC
  IC50: 10 to 100 nM
PDE4; [3]
  IC50: 11 to 100 nM

## CC(C)(O)C(F)(F)Oc1ccc(-c2nccs2)c2oc(N3CC4CC(C3)N4)nc12 [Example 248, 1-((2-(3,6-Diazabicyclo[3.1.1]heptan-3-yl)-7-(thiazol-2-yl)benzo[d]oxazol-4-yl)oxy)-1,1-difluoro-2-methylpropan-2-ol]
TNFα [1]; [4]
  IC50: < 100 nM
TNFα [2]; [5]
  IC50: < 10 nM
PDE4; [3]
  IC50: ≤ 1 nM
PDE4; [6]
  IC50: < 100 nM
PDE4
  PDE4 inhibitory activity: particularly excellent

## CC(O)C(F)(F)Oc1ccc(-c2nccs2)c2oc(N3CC4CC(C3)N4)nc12 (single isomer, unassigned) [Example 252, 1-((2-(3,6-Diazabicyclo[3.1.1]heptan-3-yl)-7-(thiazol-2-yl)benzo[d]oxazol-4-yl)oxy)-1,1-difluoropropan-2-ol]
TNFα [1]; human whole blood
  IC50: < 100 nM
TNFα [2]; [5]
  IC50: < 10 nM
PDE4; [3]
  IC50: ≤ 1 nM
PDE4; [6]
  IC50: < 100 nM
PDE4
  PDE4 inhibitory activity: particularly excellent

## FC(F)(F)Oc1ccc(-c2nccs2)c2oc(N3CC4CC(C3)N4)nc12 [Example 29, 2-(3,6-Diazabicyclo[3.1.1]heptan-3-yl)-7-(thiazol-2-yl)-4-(trifluoromethoxy)benzo[d]oxazole]
TNFα [1]; [4]
  IC50: < 100 nM
PDE4; [3]
  IC50: 1 to 11 nM
PDE4; scintillation proximity assay, class symbols of Evaluation 1, read-out: PDE4 Inhibitory Activity (concentration for the inhibition rate of 50%, IC50), Evaluation 1
  IC50: < 100 nM
PDE4
  PDE4 inhibitory activity: particularly excellent
